Results: paper PMC5496578 (Beilstein Journal of Organic Chemistry, 2017)

Target: T1, human placental 17β-HSD1 (Homo sapiens, UniProt P14061)
T1 sequence (P14061 1-328): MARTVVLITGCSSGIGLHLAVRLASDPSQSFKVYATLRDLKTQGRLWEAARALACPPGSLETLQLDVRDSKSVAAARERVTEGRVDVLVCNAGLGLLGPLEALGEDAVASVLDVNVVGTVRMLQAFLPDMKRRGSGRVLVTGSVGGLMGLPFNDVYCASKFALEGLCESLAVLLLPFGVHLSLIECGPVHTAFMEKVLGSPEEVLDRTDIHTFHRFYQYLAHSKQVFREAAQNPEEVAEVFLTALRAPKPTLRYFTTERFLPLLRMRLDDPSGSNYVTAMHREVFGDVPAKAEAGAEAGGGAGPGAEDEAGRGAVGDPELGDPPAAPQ
Test: not given
Parameters: method as in PMID 26476182, PMID 27424610
Settings: precursors marked with asterisk; cited from earlier work

SMILES | IC50
COc1cc2c(cc1I)[C@H]1CC[C@@]3(C)C(=O)CC[C@H]3[C@@H]1CC2 [Compound 4] | > 10000 nM
COc1ccc2c(c1I)CC[C@@H]1[C@@H]2CC[C@@]2(C)C(=O)CC[C@@H]12 [Compound 6] | 560 nM

Target: T1, human placental 17β-HSD1
Test: in vitro radiosubstrate incubation, 17β-HSD1 inhibition (estrone to 17β-estradiol conversion)
Assay type: biochemical
Settings: not given
Method: Determination of 17β-HSD1 inhibition
The inhibitory effects exerted on 17β-HSD1 activity by the newly synthesized conjugates were determined via an in vitro radiosubstrate incubation method described in detail earlier.[1]
Radiolabeled Chemicals (St. Louis, MO, USA).
NADPH cofactor, other chemicals and solvents of analytical grade purity were purchased from Sigma (St. Louis, MO, USA) and Fluka (Buchs, Switzerland).
Kieselgel-G TLC layers (Si 254 F, 0.25 mm thick) were obtained from Merck (Darmstadt, Germany). Human term placenta specimens were collected and used with the ethical approval of the Institutional Human Investigation Review Board.
Human term placenta specimens were combined and homogenized with an Ultra-Turrax in 0.1 M HEPES buffer (pH 7.3) containing 1 mM EDTA and 1 mM dithiotreitol, and the cytosol was obtained by fractionated centrifugation. The substrate tritium- […]
propylene glycol in HEPES buffer solution, whereas the test compounds were applied in 10 µl of dimethyl sulfoxide solution. (These organic solvent contents in the 200 µl […]
activity substantially.) Cofactor NADPH was used in excess concentration (100 µM).
The enzymatic reaction was started by the addition of the cytosol aliquots. Incubation was carried out at 37 °C for 2.5 min and was then stopped by the addition of ethyl […]
were added to the samples. The two steroids were separated by TLC with the solvent system dichloromethane/diisopropyl ether/ethyl acetate (70:15:15 v/v) and UV spots were used to trace the separated steroids. Spots were cut out and the radioactivity of […]
counting. Test compounds were applied at 10 µM and their inhibitory effects were expressed by relative conversions, in comparison with the transformation measured in the noninhibited control incubation. Two measurements were performed for each test compound and the mean was calculated. The IC50 values (the inhibitor concentration which decreases the enzyme activity to 50%) were determined for the […]
In these cases, conversions were measured at different concentrations in the interval 0.001–50 µM. IC50 results were calculated by using unweighted iterative least-squares logistic curve-fitting by means of the “absolute IC50 calculation” function of GraphPad Prism 4.0. The IC50 of unlabeled […]
1 Bacsa, I.; Jójárt, R.; Schneider, G.; Wölfling, J.; Maróti, P.; Herman, B. E.; Szécsi,
2 Szabó, J.; Jerkovics N.; Schneider G.; Wölfling J.; Bózsity N.; Minorics R.; Zupkó I.;

IC50 | SMILES
930 nM | C[C@@]12CC[C@@H]3c4cc(C#Cc5ccc(C(F)(F)F)cc5)c(O)cc4CC[C@H]3[C@@H]1CCC2=O [Compound 8e]
470 nM | COc1ccc(CCc2cc3c(cc2O)CC[C@@H]2[C@@H]3CC[C@@]3(C)C(=O)CC[C@@H]23)cc1 [Compound 16]
300 nM | C[C@@]12CC[C@@H]3c4cc(C#Cc5ccc(F)cc5)c(O)cc4CC[C@H]3[C@@H]1CCC2=O [Compound 8d]
230 nM | COc1ccc(C#Cc2cc3c(cc2O)CC[C@@H]2[C@@H]3CC[C@@]3(C)C(=O)CC[C@@H]23)cc1 [Compound 8c]
1400 nM | Cc1ccc(C#Cc2cc3c(cc2O)CC[C@@H]2[C@@H]3CC[C@@]3(C)C(=O)CC[C@@H]23)cc1 [Compound 8b]

SMILES | IC50
C[C@@]12CC[C@@H]3c4cc(C#Cc5ccccc5)c(O)cc4CC[C@H]3[C@@H]1CCC2=O [Compound 8a] | 150 nM

Same assay, conditions: read-out: Relative conversion ± SD

SMILES | remaining activity at 10 µM
COc1ccc2c(c1C#Cc1ccc(C(F)(F)F)cc1)CC[C@@H]1[C@@H]2CC[C@@]2(C)C(=O)CC[C@@H]12 [Compound 11e] | 79 ± 3%
COc1ccc2c(c1C#Cc1ccc(C)cc1)CC[C@@H]1[C@@H]2CC[C@@]2(C)C(=O)CC[C@@H]12 [Compound 11b] | 52 ± 12%
COc1ccc(CCc2c(OC)ccc3c2CC[C@@H]2[C@@H]3CC[C@@]3(C)C(=O)CC[C@@H]23)cc1 [Compound 19] | 94 ± 1%
COc1ccc2c(c1C#Cc1ccc(F)cc1)CC[C@@H]1[C@@H]2CC[C@@]2(C)C(=O)CC[C@@H]12 [Compound 11d] | 83 ± 1%
COc1ccc2c(c1C#Cc1ccccc1)CC[C@@H]1[C@@H]2CC[C@@]2(C)C(=O)CC[C@@H]12 [Compound 11a] | 92 ± 12%
Cc1ccc(C#Cc2c(O)ccc3c2CC[C@@H]2[C@@H]3CC[C@@]3(C)C(=O)CC[C@@H]23)cc1 [Compound 10b] | 89 ± 0.4%
COc1ccc(/C=C\c2cc3c(cc2OC)CC[C@@H]2[C@@H]3CC[C@@]3(C)C(=O)CC[C@@H]23)cc1 [Compound 13] | 70 ± 6%
COc1ccc(C#Cc2cc3c(cc2OC)CC[C@@H]2[C@@H]3CC[C@@]3(C)C(=O)CC[C@@H]23)cc1 [Compound 9c] | 85 ± 1%
COc1ccc(C#Cc2c(O)ccc3c2CC[C@@H]2[C@@H]3CC[C@@]3(C)C(=O)CC[C@@H]23)cc1 [Compound 10c] | 91 ± 2%
COc1cc2c(cc1C#Cc1ccc(F)cc1)[C@H]1CC[C@@]3(C)C(=O)CC[C@H]3[C@@H]1CC2 [Compound 9d] | 94 ± 5%
COc1cc2c(cc1C#Cc1ccc(C(F)(F)F)cc1)[C@H]1CC[C@@]3(C)C(=O)CC[C@H]3[C@@H]1CC2 [Compound 9e] | 76 ± 1%
COc1ccc(CCc2c(O)ccc3c2CC[C@@H]2[C@@H]3CC[C@@]3(C)C(=O)CC[C@@H]23)cc1 [Compound 18] | 98 ± 3%
COc1cc2c(cc1C#Cc1ccccc1)[C@H]1CC[C@@]3(C)C(=O)CC[C@H]3[C@@H]1CC2 [Compound 9a] | 88 ± 12%
C[C@@]12CC[C@@H]3c4ccc(O)c(C#Cc5ccc(F)cc5)c4CC[C@H]3[C@@H]1CCC2=O [Compound 10d] | 96 ± 7%
COc1ccc(CCc2cc3c(cc2OC)CC[C@@H]2[C@@H]3CC[C@@]3(C)C(=O)CC[C@@H]23)cc1 [Compound 17] | 63 ± 8%
C[C@@]12CC[C@@H]3c4ccc(O)c(C#Cc5ccc(C(F)(F)F)cc5)c4CC[C@H]3[C@@H]1CCC2=O [Compound 10e] | 85 ± 1%
COc1ccc(/C=C/c2c(OC)ccc3c2CC[C@@H]2[C@@H]3CC[C@@]3(C)C(=O)CC[C@@H]23)cc1 [Compound 15] | 80 ± 12%
COc1ccc(-c2cc3cc4c(cc3o2)CC[C@@H]2[C@@H]4CC[C@@]3(C)C(=O)CC[C@@H]23)cc1 [Compound 12] | 92 ± 2%
COc1ccc(C#Cc2c(OC)ccc3c2CC[C@@H]2[C@@H]3CC[C@@]3(C)C(=O)CC[C@@H]23)cc1 [Compound 11c] | 83 ± 8%
COc1ccc(-c2cc3c4c(ccc3o2)[C@H]2CC[C@@]3(C)C(=O)CC[C@H]3[C@@H]2CC4)cc1 [Compound 14] | 102 ± 6%
COc1cc2c(cc1C#Cc1ccc(C)cc1)[C@H]1CC[C@@]3(C)C(=O)CC[C@H]3[C@@H]1CC2 [Compound 9b] | 84 ± 5%
C[C@@]12CC[C@@H]3c4ccc(O)c(C#Cc5ccccc5)c4CC[C@H]3[C@@H]1CCC2=O [Compound 10a] | 92 ± 15%
